Usually ED50 stands for the dose that gives a 50% effect, or the effect in half of the subjects. Low readings indicate an effect at a small dose, high ones a need for a large dose.

One experiment deals with T1, Squalene Synthase (Rattus norvegicus, UniProt Q02769).
T1 construct: from tissue; host or cells: rat liver microsomes
T1 sequence (Q02769 1-416): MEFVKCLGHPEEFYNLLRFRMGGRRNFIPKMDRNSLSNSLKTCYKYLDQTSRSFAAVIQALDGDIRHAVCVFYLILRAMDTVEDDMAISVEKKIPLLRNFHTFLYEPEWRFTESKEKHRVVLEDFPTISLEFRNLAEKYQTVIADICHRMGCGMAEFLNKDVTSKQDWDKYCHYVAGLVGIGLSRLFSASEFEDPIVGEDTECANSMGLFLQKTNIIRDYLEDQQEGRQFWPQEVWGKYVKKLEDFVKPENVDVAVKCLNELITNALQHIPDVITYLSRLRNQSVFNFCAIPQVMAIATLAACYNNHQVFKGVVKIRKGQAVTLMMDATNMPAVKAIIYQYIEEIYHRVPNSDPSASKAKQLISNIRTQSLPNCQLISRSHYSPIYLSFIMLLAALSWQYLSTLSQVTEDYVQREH
The experiment can be described thus: Inhibition of Squalene Synthase (formation of squalene from tritiated farnesyl pyrophosphate, rat liver microsomal protein). As to conditions: rat liver microsomes, 20 μM 1-[3H]-farnesyl pyrophosphate, 37° C., 15 minutes; read-out: IC50 (concentration which results in a 50% inhibition of squalene production). Format: biochemical. As to the method: (a) Inhibition of Squalene Synthase
In this test, the ability of a compound to prevent the . formation of squalene from a radioactive substrate (tritiated farnesyl pyrophosphate) is assessed.
The test compound is incubated at a concentration of 25 micromolar in 200 μl of a buffered solution containing potassium phosphate (50 mM), MgCl2 (4.95 mM), KF (9.9 mM), NADPH (0.9 mM) and rat liver microsomal protein (20 μg). Rat liver microsomes are prepared by the method described in published European Patent Application No. 324,421 and stored in liquid nitrogen prior to assay. Assay vials are kept at 37° C. throughout the incubation.
The reaction is started with the addition of the substrate (1-[^3 H]-farnesyl pyrophosphate), final concentration 20 μM, and stopped after 15 minutes reaction time with the addition of 50 μl of 4% KOH. The reaction products are separated from unreacted substrate after application to a C-18 octadecyl 1ccBond column (Analytichem Int product No. 617101). An aqueous fraction is eluted with 250 μl of 0.1M KOH. Squalene is then eluted with 1.0 ml 10% ethylacetate in hexane and radioactivity determined. The difference in radioactivity in the presence and absence of the test compound is used to determine the level of inhibition. […] The IC50 can then be determined from a plot of percentage inhibition against concentration of test compound.
(In general: Liver microsomes are vesicles of endoplasmic reticulum, rich in cytochrome P450 enzymes.)

In experiment [1] the test system is de novo hepatic cholesterol synthesis. The experiment is described as follows: Acute Rat Cholesterol Synthesis Assay (de novo hepatic cholesterol synthesis from exogenously administered 14C-acetate). The format is in vivo. To be noted: female rats, oral gavage, ip or iv dosing (route not given), [2-14C]-acetate ip 1 hour after dose, blood after a further hour. How it is done: (b) Acute Rat Cholesterol Synthesis Assay
This is an acute in vivo test in the rat to measure de novo hepatic cholesterol synthesis from exogenously administered ^14 C-acetate.
Female rats (35-55 g) are housed in reverse lighting conditions (red light from 0200h-1400h) for a period of about 2 weeks prior to test. Animals are allowed free access to chow and drinking water throughout this period. At test, animals should weigh 125-150 g.
Test compounds may be administered by oral gavage, dissolved or suspended in 0.5% polysorbate, or by ip or iv dosing. Control animals receive vehicle alone. After 1 hour the rats are injected ip with 25 μCi [2-^14 C]-acetate (NEN DUPONT. specific activity, 45-60 mCi/mmol NEC-085H, or AMERSHAM specific activity, 50-60 mCi/mmol CFA 14) in a volume of 0.25 ml saline (100 μCi/ml). After a further hour, rats are terminally anaesthetised with halothane and a blood sample obtained from the abdominal vena cava.
1 ml of plasma is lyophilised and then saponified in 2 ml ethanolic KOH (1 part 33% KOH, 9 parts ethanol) at 75° C. for 2 hours. After addition of an equal quantity of water, non-saponifiable lipids are extracted with two 5 ml volumes of hexane. The hexane extracts are evaporated to dryness and the residues dissolved in ethanol to determine cholesterol specific radioactivity. ED50 values can be determined in the standard way.

`OC1C2CCN(CC2)C1Cc1ccc(-c2ccccc2)cc1` (stereo not drawn) [Example 2, 2-(4-biphenylmethyl)-3-quinuclidinol]: the IC50 at Squalene Synthase stood at 120 nM.

On to `c1ccc(-c2ccc(SC3CN4CCC3CC4)cc2)cc1` (stereo not drawn) [Example 10, 3-(4-biphenylthio)quinuclidine], for which the ED50 in experiment [1] was found to be 46 mg/kg. Moreover, on Squalene Synthase, the IC50 was determined as 21 nM.

The record behind these values is patent US5612352A, “Heterocyclic compounds” (Zeneca Limited, priority 1992, dated 1997).
